SMILES strings stand for the structures. Calls of active or inactive are those of the source. The calls are words filed in the database; no cut-off is given here.

This note sets out measurements from ChEMBL document CHEMBL6134865, “Rational Design of Methylene Blue-Raloxifene Conjugates for Efficient Breast Tumor Elimination Triggered by ERα Degradation” (J Med Chem, 2025).

Data set [1] can be described thus: Induction of ROS generation in water assessed as decrease in ABDA absorption peak at 5 uM irradiated with 660 nm 0.4 W/cm2 light up to 5 mins by ABDA probe based UV-vis absorption spectra analysis. The class given is functional.
A short description of data set [2]: Induction of ROS generation in water at 1 uM irradiated with 660 nm 0.4 W/cm2 light up to 180 sec by DCFH probe based fluorescence spectra analysis. The class given is functional.
The nature of data set [3]: Photothermal effect of compound in water assessed as increase in solution temperature at 0.5 to 10 uM in presence of 660 nm 0.4 W/cm2 light irradiation. Conditions: dose 0.5-10 µM, time <= 5.0 min. The class given is functional.
A short description of data set [4]: Photothermal effect of compound in water assessed as increase in solution temperature measured up to 5 mins in presence of 660 nm 0.4 W/cm2 light irradiation. The note with it: dose 0.5-10 µM. The class given is functional.
Data set [5] relates to MCF7. The data set can be described thus: Induction of ROS generation in human MCF7 cells assessed as cell percentage with elevated ROS at 1 uM incubated for 6 hrs followed by irradiation with 660 nm 0.4 W/cm2 light for 2 min by DCFH-DA probe based flow cytometric analysis (reference value: 0.2 %). The class given is functional. The note with it: time 362 min, 6.033 h.
For data set [6], the system named is MCF7. The data set can be described thus: cells. The note with it: Homo sapiens, MCF7, 48 h.
Description: Antiproliferative activity against human MCF7 cells assessed as inhibition of cell proliferation incubated for 48 hrs by MTT assay
Data set [7] deals with MCF7. Description: cells. The note with it: Homo sapiens, MCF7, light or radiation study.
Description: Antiproliferative activity against human MCF7 cells assessed as inhibition of cell proliferation incubated for 48 hrs with 660 nm 0.4 W/cm2 light irradiation for 1 min at 6th hr of incubation time by MTT assay
For data set [8], the system named is MCF7. The data set can be described thus: cells. The note with it: Homo sapiens, MCF7, light or radiation study. The source holds these as a separate data set.
Description: Antiproliferative activity against human MCF7 cells assessed as inhibition of cell proliferation incubated for 48 hrs with 660 nm 0.4 W/cm2 light irradiation for 2 min at 6th hr of incubation time by MTT assay
Data set [9] relates to MCF7. The data set can be described thus: cells. Conditions: Homo sapiens, MCF7, light or radiation study. The source holds these as a separate data set.
Description: Antiproliferative activity against human MCF7 cells assessed as inhibition of cell proliferation incubated for 48 hrs with 660 nm 0.4 W/cm2 light irradiation for 3 min at 6th hr of incubation time by MTT assay
Data set [10] deals with MCF7. The data set can be described thus: cells. Conditions: Homo sapiens, MCF7, light or radiation study. This is another data set of the same source.
Description: Antiproliferative activity against human MCF7 cells assessed as inhibition of cell proliferation incubated for 48 hrs with 660 nm 0.4 W/cm2 light irradiation for 4 min at 6th hr of incubation time by MTT assay
The test system of data set [11] is MCF7. Description: cells. The note with it: Homo sapiens, MCF7, light or radiation study. The source holds these as a separate data set.
Description: Antiproliferative activity against human MCF7 cells assessed as inhibition of cell proliferation incubated for 48 hrs with 660 nm 0.4 W/cm2 light irradiation for 5 min at 6th hr of incubation time by MTT assay
A short description of data set [12]: in vivo. The note with it: Sprague-Dawley, rat, iv, 5 mg/kg.
Description: Cmax in Sprague-Dawley rat at 5 mg/kg, iv measured after 0.5 to 168 hrs by LC-MS analysis
A short description of data set [13]: in vivo. Conditions: Sprague-Dawley, rat, iv, 5 mg/kg. This is another data set of the same source.
Description: AUC (0 to infinity) in Sprague-Dawley rat at 5 mg/kg, iv measured after 0.5 to 168 hrs by LC-MS analysis
A short description of data set [14]: in vivo. The note with it: Sprague-Dawley, rat, iv, 5 mg/kg. This is another data set of the same source.
Description: Volume of distribution at steady state in Sprague-Dawley rat at 5 mg/kg, iv measured after 0.5 to 168 hrs by LC-MS analysis
Data set [15] is described as follows: in vivo. Conditions: Sprague-Dawley, rat, po, 15 mg/kg.
Description: Tmax in Sprague-Dawley rat at 15 mg/kg, po administered via gavage and measured after 0.5 to 168 hrs by LC-MS analysis
A short description of data set [16]: in vivo. The note with it: Sprague-Dawley, rat, po, 15 mg/kg. The source holds these as a separate data set.
Description: Cmax in Sprague-Dawley rat at 15 mg/kg, po administered via gavage and measured after 0.5 to 168 hrs by LC-MS analysis
A short description of data set [17]: in vivo. The note with it: Sprague-Dawley, rat, po, 15 mg/kg. The source holds these as a separate data set.
Description: AUC (0 to infinity) in Sprague-Dawley rat at 15 mg/kg, po administered via gavage and measured after 0.5 to 168 hrs by LC-MS analysis
In data set [18] the test system is MCF7. The data set can be described thus: Antitumor activity against human MCF7 cells xenografted in female BALB/c mouse model assessed as tumor growth inhibition at 5 mg/kg, iv measured after 14 days relative to control. The class given is functional. Conditions: MCF7, 336 h, time 14 day, read-out: TGI.
Data set [19] in a line: Toxicity in female BALB/c mouse xenografted with human MCF7 cells assessed as change in body weight at 5 mg/kg, iv measured after 14 days. The class given is organism-based. The note with it: in vivo, 336 h, time 14 day.
The nature of data set [20]: Toxicity in female BALB/c mouse xenografted with human MCF7 cells assessed as change in ALT level at 5 mg/kg, iv measured after 14 days. The class given is organism-based. The note with it: in vivo, 336 h, time 14 day.
Data set [21] is described as follows: Toxicity in female BALB/c mouse xenografted with human MCF7 cells assessed as change in AST level at 5 mg/kg, iv measured after 14 days. Conditions: in vivo, 336 h, time 14 day. The class given is organism-based.
Data set [22] in a line: Toxicity in female BALB/c mouse xenografted with human MCF7 cells assessed as change in blood urea nitrogen level at 5 mg/kg, iv measured after 14 days. The note with it: in vivo, 336 h, time 14 day. The class given is organism-based.
The nature of data set [23]: Toxicity in female BALB/c mouse xenografted with human MCF7 cells assessed as change in creatinine level at 5 mg/kg, iv measured after 14 days. The note with it: in vivo, 336 h, time 14 day. The class given is organism-based.

As for `CCN(CC)c1ccc2nc3c4ccccc4/c(=N\CCC(=O)NCCCOc4ccc(C(=O)c5c(-c6ccc(O)cc6)sc6cc(O)ccc56)cc4)cc-3sc2c1`, the result in data set [1] and in [2] was Active. Besides, the results for the Activity result in data set [3], in data set [4] and in data set [5] were “Time-dependent-effect”, “Dose-dependent-effect” and 4.2%, respectively. Besides, the half-maximal inhibitory concentration (IC50) in data set [6] is above 100 µM; in data set [7], 5.53 µM; in data set [8], 3.85 µM; in data set [9], 1780 nM; in [10], 1340 nM; in data set [11], 630 nM.

On to `O=C(c1ccc(OCCN2CCCCC2)cc1)c1c(-c2ccc(O)cc2)sc2cc(O)ccc12` [RALOXIFENE], for which, in data set [6], half-maximal inhibition (IC50) was put at 6.7 µM.

As to `CN(C)c1ccc2nc3ccc(N(C)C)cc3[s+]c2c1` [METHYLENE BLUE ANHYDROUS], the concentration for half-maximal inhibition (IC50) in [6] is above 100 µM; in data set [7], above 100 µM; in data set [8], above 100 µM; in data set [9], 14100 nM; in data set [10], 6760 nM; in data set [11], 5530 nM.

`CC/C(=C(\c1ccccc1)c1ccc(OCCN(C)C)cc1)c1ccccc1` [TAMOXIFEN]: the Cmax in [12] was found to be 15.9 ng/mL; in [16], 11.7 ng/mL. The total exposure AUC(0-inf) in [13] came out at 295 ng·h/mL; in [17], 311 ng·h/mL. This molecule registered a volume of distribution (Vd) in [14] of 221 L/kg. The time of peak concentration (Tmax) in data set [15] turned out to be 16 h.

On to `CCN(CC)c1ccc2nc3c4ccccc4/c(=N\CCCCC(=O)NCCCOc4ccc(C(=O)c5c(-c6ccc(O)cc6)sc6cc(O)ccc56)cc4)cc-3sc2c1`, for which the result in [1] and in [2] was Active. In addition, the Activity in [5] worked out at 4.8%. Also, the IC50 in [6] was above 100 µM; in data set [7], 4.67 µM; in data set [8], 0.93 µM; in data set [9] it was 720 nM; in data set [10], 380 nM; in data set [11] it was 330 nM.

In the case of `C[C@]12CC[C@@H]3c4ccc(O)cc4C[C@@H](CCCCCCCCC[S+]([O-])CCCC(F)(F)C(F)(F)F)[C@H]3[C@@H]1CC[C@@H]2O` (some centres undefined) [FULVESTRANT], the inhibition in vivo at 5 mg/kg in data set [18] was 95.4%. Also, the Activity result in data set [19], in [20], in data set [21], in data set [22] and in data set [23] was “Non-toxic” throughout.
